In general, melting point refers to the temperature of the solid-liquid transition.

Structures are written as SMILES.

The molecule `O=C1CC(c2ccc(O)cc2)Oc2cc(OC3OC(CO)C(O)C3O)cc(O)c21` (centres unmarked) yielded a melting point of 229 to 230 °C. For the molecule `NCC[C@H]1C[C@H](O)C(=O)O1` (hydrate or solvate), the melting point lay in the range of 347 to 350 °C.
